Data published in patent US20090317372A1, “SMALL MOLECULES FOR THE REDUCTION OF HIGH BLOOD GLUCOSE LEVEL” (priority 2008, published 2009).

Key:
Format in all cases: in vivo
[1] = tested on: mice with PC-3 tumor; experiment: Glucose tolerance test in the PC-3 tumor model, chronic and acute CCcompound1
Method: The experimental PC-3 human tumors were developed in a homozygous line of C.B.-171 cr scid/scid adult female mice that were kept at specified pathogen free (SPF) hygienic level. Treatments with CCcompound1 (4.5 mg/kg) were started on day 12 after tumor implantation and conducted for 5+5 days with 2 treatment-free days inserted between the 2 series of treatments. A control group (10 mice) received no treatment, while another group (10 mice) received 4.5-mg/kg of CCcompound1 once every day between days 12-24. The results, shown in TABLE 8, indicate that between days 12 and 24 after tumor implantation, the prostate tumor caused about 6.9-g loss in lean body weight (4.1-g loss in total body weight). In contrast, animals treated with CCcompound1 actually gained 6.3-g lean body weight.
Tumors and cachexia are usually associated with insulin resistance. […] Both groups were starved for 14 hours and divided into two sub-groups; one subgroup remained untreated on day 25, another subgroup was administered 4.5-mg/kg of CCcompound1 60 min prior to administration of 3-g/kg of glucose. Blood samples were taken and blood glucose was analyzed as described earlier. […] In contrast, in animals that received chronic (C) treatment with CCcompound1 for 12 days, reduction in blood glucose level was clearly faster. Importantly, acute (A) treatment with CCcompound1 was almost as effective in cancer mice as in normal mice in reducing blood glucose level

[2] = tested on: C57/BL/6 mice; experiment: Blood glucose level in normal (non-diabetic) mice without glucose challenge; conditions: food deprived 2 h
Method: Female C57/BL/6 mice (25-27-g body weight) were deprived of food for 2 hours and then injected with 4.5-mg/kg of CCcompound1. Blood samples for glucose measurements were taken from the eyes (canthus) just before the administration of CCcompound1 (0 min) as well as 30 min and 120 min after the administration of CCcompound1. Glucose concentrations in whole blood samples were immediately measured with the Fast Glucose C test. The data are the mean±std.dev. of 5 determinations, i.e. one determination with each of the 5 animals. […] In this experiment, the period of food deprivation was short enough that compensatory mechanisms could maintain the blood glucose level near the normal 5-mM value. The condition employed also reflects the human eating habits, because normally there is at least a 2 hours interval between meals and snacks. Thus, with normal subjects under normal conditions, CC compounds are not expected to appreciably change the physiological level of blood glucose level that is about 5-mM on average.

[3] = tested on: C57/BL/6 mice; experiment: Glucose tolerance test with normal mice, dose and time dependence of CCcompound1
Method: Female C57/BL/6 mice weighing 22-23-g and fasted for 14 hours prior to i.p. glucose administration (3-g/kg) were used. None of the animals received any food during the experiment other than glucose. The animals received i.p. injections of 2.0 or 4.5-mg/kg of CCcompound1 either 30 min, 60 min or 120 min prior to glucose administration. Blood samples were taken and glucose concentrations were immediately measured as described earlier. Each group included six animals. The data are the mean±std. dev. of 6 determinations, i.e. one determination with each of the six animals. “-min” indicates the length of period in minutes elapsed between the administration of CCcompound1 (first) and glucose (second).

Cc1c(OCC(O)C[N+](C)(C)C)cc2c(=O)c3ccccc3sc2c1C.[Cl-] (centres unmarked) [CCcompound 1, [3-(3,4-Dimethyl-9-oxo-9H-thioxanthen-2-yloxy)-2-hydroxypropyl]trimethyl-ammonium chloride]
Blood glucose ([1]; acute (A): 4.5-mg/kg 60 min prior to glucose on day 25, 0 min): 2.3 ± 0.2 mM
Blood glucose ([1]; acute (A), 30 min): 5.5 ± 0.6 mM
Blood glucose ([1]; acute (A), 60 min): 4.4 ± 0.7 mM
Blood glucose ([1]; acute (A), 120 min): 3.5 ± 0.4 mM
Blood glucose ([1]; chronic (C): 4.5-mg/kg daily days 12-24, 0 min): 1.8 ± 0.4 mM
Blood glucose ([1]; chronic (C), 30 min): 7.1 ± 0.5 mM
Blood glucose ([1]; chronic (C), 60 min): 6.5 ± 0.4 mM
Blood glucose ([1]; chronic (C), 120 min): 4.9 ± 0.6 mM
Blood glucose ([1]; chronic + acute (C + A), 0 min): 2.1 ± 0.5 mM
Blood glucose ([1]; chronic + acute (C + A), 30 min): 5.1 ± 0.4 mM
Blood glucose ([1]; chronic + acute (C + A), 60 min): 3.9 ± 0.4 mM
Blood glucose ([1]; chronic + acute (C + A), 120 min): 3.1 ± 0.3 mM
Blood glucose ([2]; 0 min, just before 4.5-mg/kg): 5.1 ± 0.5 mM
Blood glucose ([2]; 30 min after 4.5-mg/kg): 4.9 ± 0.4 mM
Blood glucose ([2]; 120 min after 4.5-mg/kg): 4.9 ± 0.6 mM
Blood glucose ([3]; 2 mg/kg i.p. −30 min, 0 min): 1.30 ± 0.20 mM
Blood glucose ([3]; 2 mg/kg i.p. −30 min, 30 min): 5.40 ± 0.45 mM
Blood glucose ([3]; 2 mg/kg i.p. −30 min, 60 min): 4.15 ± 0.45 mM
Blood glucose ([3]; 2 mg/kg i.p. −30 min, 120 min): 3.50 ± 0.30 mM
Blood glucose ([3]; 2 mg/kg i.p. −30 min, 180 min): 2.80 ± 0.30 mM
Blood glucose ([3]; 2 mg/kg i.p. −60 min, 0 min): 1.30 ± 0.30 mM
Blood glucose ([3]; 2 mg/kg i.p. −60 min, 30 min): 5.70 ± 0.35 mM
Blood glucose ([3]; 2 mg/kg i.p. −60 min, 60 min): 4.30 ± 0.30 mM
Blood glucose ([3]; 2 mg/kg i.p. −60 min, 120 min): 3.70 ± 0.30 mM
Blood glucose ([3]; 2 mg/kg i.p. −60 min, 180 min): 3.25 ± 0.35 mM
Blood glucose ([3]; 4.5 mg/kg i.p. −30 min, 0 min): 1.50 ± 0.25 mM
Blood glucose ([3]; 4.5 mg/kg i.p. −30 min, 30 min): 5.05 ± 0.20 mM
Blood glucose ([3]; 4.5 mg/kg i.p. −30 min, 60 min): 3.55 ± 0.25 mM
Blood glucose ([3]; 4.5 mg/kg i.p. −30 min, 120 min): 2.95 ± 0.25 mM
Blood glucose ([3]; 4.5 mg/kg i.p. −30 min, 180 min): 1.95 ± 0.30 mM
Blood glucose ([3]; 4.5 mg/kg i.p. −60 min, 0 min): 1.40 ± 0.25 mM
Blood glucose ([3]; 4.5 mg/kg i.p. −60 min, 30 min): 5.25 ± 0.30 mM
Blood glucose ([3]; 4.5 mg/kg i.p. −60 min, 60 min): 3.90 ± 0.20 mM
Blood glucose ([3]; 4.5 mg/kg i.p. −60 min, 120 min): 3.20 ± 0.15 mM
Blood glucose ([3]; 4.5 mg/kg i.p. −60 min, 180 min): 2.85 ± 0.15 mM
Blood glucose ([3]; 4.5 mg/kg i.p. −120 min, 0 min): 1.35 ± 0.15 mM
Blood glucose ([3]; 4.5 mg/kg i.p. −120 min, 30 min): 7.80 ± 0.40 mM
Blood glucose ([3]; 4.5 mg/kg i.p. −120 min, 60 min): 5.90 ± 0.45 mM
Blood glucose ([3]; 4.5 mg/kg i.p. −120 min, 120 min): 4.30 ± 0.40 mM
Blood glucose ([3]; 4.5 mg/kg i.p. −120 min, 180 min): 3.00 ± 0.20 mM
Glucose lowering effect ([3]; administered 120 min prior to glucose): practically ineffective
